Laboratory results published in ChEMBL document CHEMBL5634130, “Exploring the structural-activity relationship of hexahydropyrazino[1,2-d]pyrido[3,2-b][1,4]oxazine derivatives as potent and orally-bioavailable PARP7 inhibitors” (Eur J Med Chem, 2023).
Values after ≈ are worked out from the molar mass of the structure shown. Active and inactive are the calls of the source. The calls are words filed in the database; no cut-off is given here.

What was measured:
[1] = Half life in fasted Beagle dog at 10 mg/kg, po measured for 24 hrs by LC-MS analysis; format: ADME, organism-based, Canis lupus familiaris; settings: in vivo
[2] = AUC in fasted ICR mouse at 10 mg/kg, po measured for 24 hrs by LC-MS analysis; format: ADME, organism-based; settings: in vivo
[3] = Toxicity in […] SCID mouse model xenografted with human NCI-H1373 cells assessed as body weight loss at 30 mg/kg, po measured for 21 days; format: organism-based; settings: in vivo, 504 h, time 21 day
[4] = Efflux ratio of apparent permeability across basolateral to apical side over apical to basolateral side in MDCKII-MDR1 cells incubated for 2 hrs by LC-MS analysis; format: ADME, cell-based, Canis lupus familiaris; settings: dog, MDCK-MDR1
[5] = molecular target: Poly [ADP-ribose] polymerase 1 (Homo sapiens, UniProt P09874); test: Inhibition of PARP1 (unknown origin)
Sequence of Poly [ADP-ribose] polymerase 1 (P09874 whole entry): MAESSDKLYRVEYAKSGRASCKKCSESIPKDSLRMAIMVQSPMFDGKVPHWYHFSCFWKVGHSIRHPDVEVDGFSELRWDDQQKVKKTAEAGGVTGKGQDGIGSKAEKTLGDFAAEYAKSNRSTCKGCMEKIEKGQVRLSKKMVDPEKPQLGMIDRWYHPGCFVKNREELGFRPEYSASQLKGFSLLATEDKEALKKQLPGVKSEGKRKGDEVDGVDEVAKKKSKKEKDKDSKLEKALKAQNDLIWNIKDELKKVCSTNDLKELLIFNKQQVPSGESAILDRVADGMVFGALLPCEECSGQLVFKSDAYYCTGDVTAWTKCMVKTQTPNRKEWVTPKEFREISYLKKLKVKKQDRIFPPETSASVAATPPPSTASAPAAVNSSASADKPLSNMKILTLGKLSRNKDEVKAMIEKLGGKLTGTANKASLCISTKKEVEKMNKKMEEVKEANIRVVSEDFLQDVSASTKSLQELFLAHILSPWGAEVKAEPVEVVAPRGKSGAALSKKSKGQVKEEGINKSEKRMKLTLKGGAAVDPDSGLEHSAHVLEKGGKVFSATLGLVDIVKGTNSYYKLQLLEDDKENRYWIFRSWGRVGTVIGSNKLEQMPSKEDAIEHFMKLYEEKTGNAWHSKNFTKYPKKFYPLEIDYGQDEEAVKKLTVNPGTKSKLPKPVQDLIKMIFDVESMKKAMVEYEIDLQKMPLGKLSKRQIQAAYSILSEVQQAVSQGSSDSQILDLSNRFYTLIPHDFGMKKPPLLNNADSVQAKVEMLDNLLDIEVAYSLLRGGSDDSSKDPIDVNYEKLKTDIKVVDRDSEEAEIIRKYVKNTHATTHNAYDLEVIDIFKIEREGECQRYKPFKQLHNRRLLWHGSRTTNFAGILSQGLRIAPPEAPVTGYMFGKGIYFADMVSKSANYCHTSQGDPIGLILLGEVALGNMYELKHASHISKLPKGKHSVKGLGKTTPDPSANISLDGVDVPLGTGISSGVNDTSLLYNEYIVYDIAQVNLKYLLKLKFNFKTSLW

Cytochrome P450 3A4 = Cytochrome P450 3A4 (Homo sapiens, UniProt P08684); test: Inhibition of CYP3A4 in human liver microsomes using midazolam as substrate preincubated for 10 mins followed by substrate addition measured for 30 mins by LC-MS analysis; format: ADME, Microsome
Sequence of Cytochrome P450 3A4 (P08684 whole entry): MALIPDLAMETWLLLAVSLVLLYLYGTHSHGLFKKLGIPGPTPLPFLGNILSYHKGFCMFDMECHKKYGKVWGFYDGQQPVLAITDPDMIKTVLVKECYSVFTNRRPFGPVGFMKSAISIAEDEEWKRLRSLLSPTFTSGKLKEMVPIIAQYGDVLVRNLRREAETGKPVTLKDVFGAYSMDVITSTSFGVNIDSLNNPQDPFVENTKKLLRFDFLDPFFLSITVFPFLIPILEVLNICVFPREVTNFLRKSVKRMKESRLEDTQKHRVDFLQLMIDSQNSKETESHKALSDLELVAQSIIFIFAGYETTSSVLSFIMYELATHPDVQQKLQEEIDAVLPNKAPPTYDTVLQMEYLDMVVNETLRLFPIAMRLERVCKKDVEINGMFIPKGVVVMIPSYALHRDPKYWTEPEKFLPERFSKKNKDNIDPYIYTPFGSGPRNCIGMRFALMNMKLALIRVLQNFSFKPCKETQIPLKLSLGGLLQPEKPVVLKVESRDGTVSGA

Cytochrome P450 2C9 = Cytochrome P450 2C9 (Homo sapiens, UniProt P11712); test: Inhibition of CYP2C9 in human liver microsomes using diclofenac as substrate preincubated for 10 mins followed by substrate addition measured for 30 mins by LC-MS analysis; format: ADME, Microsome
Sequence of Cytochrome P450 2C9 (P11712 whole entry): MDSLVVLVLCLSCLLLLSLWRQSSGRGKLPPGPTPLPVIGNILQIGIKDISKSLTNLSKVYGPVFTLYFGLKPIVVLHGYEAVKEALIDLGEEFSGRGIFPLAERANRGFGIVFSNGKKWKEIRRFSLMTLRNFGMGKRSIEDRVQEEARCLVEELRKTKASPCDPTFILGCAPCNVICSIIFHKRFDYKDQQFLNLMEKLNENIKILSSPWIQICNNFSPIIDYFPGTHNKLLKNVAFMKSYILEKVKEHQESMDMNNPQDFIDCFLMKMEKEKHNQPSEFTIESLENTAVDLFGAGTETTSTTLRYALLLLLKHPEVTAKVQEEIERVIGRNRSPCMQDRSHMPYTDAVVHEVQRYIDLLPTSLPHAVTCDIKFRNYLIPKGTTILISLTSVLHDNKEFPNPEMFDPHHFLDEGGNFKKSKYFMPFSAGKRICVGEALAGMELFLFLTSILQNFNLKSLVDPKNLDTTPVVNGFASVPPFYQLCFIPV

[6] = Metabolic stability in human liver microsomes assessed as intrinsic clearance preincubated for 5 mins followed by NADPH addition measured for 1 hr by LC-MS analysis; format: ADME, Microsome; settings: time 65 min, read-out: CLH
[7] = Plasma protein binding in monkey at 2 uM incubated for 1 hr by LC/MS analysis; format: ADME, cell-free, Macaca mulatta; settings: rhesus monkey, read-out: PPB (converted)
[8] = Tmax in fasted ICR mouse at 10 mg/kg, po measured for 24 hrs by LC-MS analysis; format: ADME, organism-based; settings: in vivo
[9] = Cmax in fasted Beagle dog at 10 mg/kg, po measured for 24 hrs by LC-MS analysis; format: ADME, organism-based, Canis lupus familiaris; settings: in vivo
[10] = Kinetic solubility of compound at pH 7.4; format: physicochemical; settings: buffer, read-out: Kinetic_solubility
[11] = Kinetic solubility of compound at pH 2; format: physicochemical; settings: buffer, read-out: Kinetic_solubility
[12] = Plasma protein binding in human at 2 uM incubated for 1 hr by LC/MS analysis; format: ADME, cell-free; settings: read-out: PPB (converted)
[13] = Metabolic stability in dog liver microsomes assessed as intrinsic clearance preincubated for 5 mins followed by NADPH addition measured for 1 hr by LC-MS analysis; format: ADME, Canis lupus familiaris, Microsome; settings: time 65 min, read-out: CLH
[14] = Volume of distribution at steady state in fasted ICR mouse at 2 mg/kg, iv measured for 24 hrs by LC-MS analysis; format: ADME, organism-based; settings: in vivo, read-out: Vdss
[15] = Plasma protein binding in rat at 2 uM incubated for 1 hr by LC/MS analysis; format: ADME, cell-free; settings: read-out: PPB (converted)
[16] = Cmax in fasted ICR mouse at 10 mg/kg, po measured for 24 hrs by LC-MS analysis; format: ADME, organism-based; settings: in vivo
[17] = Metabolic stability in monkey liver microsomes assessed as intrinsic clearance preincubated for 5 mins followed by NADPH addition measured for 1 hr by LC-MS analysis; format: ADME, Macaca mulatta, Microsome; settings: rhesus monkey, time 65 min, read-out: CLH
[18] = molecular target: T1, Protein mono-ADP-ribosyltransferase PARP12 (Homo sapiens, UniProt Q9H0J9); test: Inhibition of PARP12 (unknown origin)
T1 sequence (Q9H0J9 whole entry): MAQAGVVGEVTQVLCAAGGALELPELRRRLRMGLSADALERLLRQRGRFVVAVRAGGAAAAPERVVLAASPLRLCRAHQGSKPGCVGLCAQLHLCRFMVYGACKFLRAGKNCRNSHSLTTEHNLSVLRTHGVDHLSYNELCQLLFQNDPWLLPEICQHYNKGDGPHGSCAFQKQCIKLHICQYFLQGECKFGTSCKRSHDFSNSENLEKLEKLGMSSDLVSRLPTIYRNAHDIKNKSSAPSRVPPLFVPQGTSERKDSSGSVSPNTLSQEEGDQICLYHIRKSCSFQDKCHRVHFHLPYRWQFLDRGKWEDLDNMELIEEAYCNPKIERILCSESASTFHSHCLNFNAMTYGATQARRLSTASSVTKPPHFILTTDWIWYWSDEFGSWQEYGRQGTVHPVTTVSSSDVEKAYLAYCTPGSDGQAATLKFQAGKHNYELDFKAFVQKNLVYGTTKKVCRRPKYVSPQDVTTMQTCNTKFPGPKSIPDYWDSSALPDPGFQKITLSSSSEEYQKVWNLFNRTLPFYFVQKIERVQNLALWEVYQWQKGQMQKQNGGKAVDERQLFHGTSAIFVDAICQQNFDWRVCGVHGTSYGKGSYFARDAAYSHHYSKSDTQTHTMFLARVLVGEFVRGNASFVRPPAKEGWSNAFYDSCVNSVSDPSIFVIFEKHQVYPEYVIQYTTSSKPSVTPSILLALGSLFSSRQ

[19] = molecular target: Protein mono-ADP-ribosyltransferase PARP14 (Homo sapiens, UniProt Q460N5); test: Inhibition of PARP14 (unknown origin)
Sequence of Protein mono-ADP-ribosyltransferase PARP14 (Q460N5 whole entry): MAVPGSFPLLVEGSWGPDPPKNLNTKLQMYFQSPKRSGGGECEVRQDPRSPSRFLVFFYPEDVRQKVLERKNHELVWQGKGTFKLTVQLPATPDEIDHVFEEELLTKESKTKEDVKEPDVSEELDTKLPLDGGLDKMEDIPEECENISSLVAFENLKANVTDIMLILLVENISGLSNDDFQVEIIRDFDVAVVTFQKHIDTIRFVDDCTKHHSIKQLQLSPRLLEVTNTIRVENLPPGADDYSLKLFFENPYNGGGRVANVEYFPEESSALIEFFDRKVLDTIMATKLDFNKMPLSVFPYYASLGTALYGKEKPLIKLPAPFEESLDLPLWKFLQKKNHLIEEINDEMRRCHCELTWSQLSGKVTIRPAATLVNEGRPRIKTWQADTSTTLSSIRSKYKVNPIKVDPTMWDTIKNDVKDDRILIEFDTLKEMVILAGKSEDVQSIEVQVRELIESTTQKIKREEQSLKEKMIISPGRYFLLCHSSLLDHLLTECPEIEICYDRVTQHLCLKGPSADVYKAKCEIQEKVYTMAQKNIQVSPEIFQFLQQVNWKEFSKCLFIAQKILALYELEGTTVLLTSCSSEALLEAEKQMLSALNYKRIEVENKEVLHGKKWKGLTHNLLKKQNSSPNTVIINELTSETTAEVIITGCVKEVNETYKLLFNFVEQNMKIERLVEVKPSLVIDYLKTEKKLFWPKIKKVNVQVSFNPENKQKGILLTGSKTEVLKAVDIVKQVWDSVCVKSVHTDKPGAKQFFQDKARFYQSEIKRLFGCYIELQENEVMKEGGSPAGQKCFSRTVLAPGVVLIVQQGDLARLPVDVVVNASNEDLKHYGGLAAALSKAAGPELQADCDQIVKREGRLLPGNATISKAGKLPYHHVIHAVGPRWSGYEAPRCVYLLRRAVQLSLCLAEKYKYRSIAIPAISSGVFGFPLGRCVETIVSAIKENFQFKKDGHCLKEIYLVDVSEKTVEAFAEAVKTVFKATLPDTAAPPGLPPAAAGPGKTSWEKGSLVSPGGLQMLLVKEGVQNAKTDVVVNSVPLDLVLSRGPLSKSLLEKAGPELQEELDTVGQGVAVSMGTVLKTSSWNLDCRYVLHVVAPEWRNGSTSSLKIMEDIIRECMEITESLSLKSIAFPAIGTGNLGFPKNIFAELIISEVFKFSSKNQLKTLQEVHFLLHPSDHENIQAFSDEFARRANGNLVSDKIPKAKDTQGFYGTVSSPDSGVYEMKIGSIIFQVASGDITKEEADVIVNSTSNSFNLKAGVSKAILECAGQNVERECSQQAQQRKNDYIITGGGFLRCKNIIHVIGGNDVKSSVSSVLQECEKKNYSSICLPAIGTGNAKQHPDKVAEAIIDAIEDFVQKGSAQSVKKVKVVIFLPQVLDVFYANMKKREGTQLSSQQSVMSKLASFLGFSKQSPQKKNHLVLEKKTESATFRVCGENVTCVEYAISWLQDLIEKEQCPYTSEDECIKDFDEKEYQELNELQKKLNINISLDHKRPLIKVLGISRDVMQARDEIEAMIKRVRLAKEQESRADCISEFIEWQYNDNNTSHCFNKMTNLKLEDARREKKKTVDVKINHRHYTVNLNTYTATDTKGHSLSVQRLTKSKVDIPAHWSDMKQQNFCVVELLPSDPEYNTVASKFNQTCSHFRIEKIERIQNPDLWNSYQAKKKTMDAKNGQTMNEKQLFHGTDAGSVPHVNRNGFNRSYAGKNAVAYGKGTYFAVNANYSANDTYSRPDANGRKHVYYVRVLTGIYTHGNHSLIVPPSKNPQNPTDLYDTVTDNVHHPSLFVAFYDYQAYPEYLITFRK

[20] = AUC in fasted ICR mouse at 2 mg/kg, iv measured for 24 hrs by LC-MS analysis; format: ADME, organism-based; settings: in vivo
[21] = Plasma protein binding in dog at 2 uM incubated for 1 hr by LC/MS analysis; format: ADME, cell-free, Canis lupus familiaris; settings: read-out: PPB (converted)
MDA-MB-436 = test: Antiproliferative activity against human MDA-MB-436 cells assessed as inhibition of cell viability incubated for 7 days by luminescence based assay; format: functional; settings: MDA-MB-436, 168 h
[22] = Thermodynamic solubility of compound at pH 6.5; format: physicochemical; settings: buffer, read-out: Therm_solubility
[23] = Clearance in fasted Beagle dog at 2 mg/kg, iv measured for 24 hrs by LC-MS analysis; format: ADME, organism-based, Canis lupus familiaris; settings: in vivo
[24] = Apparent permeability across basolateral to apical side in MDCKII-MDR1 cells incubated for 2 hrs by LC-MS analysis; format: ADME, cell-based, Canis lupus familiaris; settings: dog, MDCK-MDR1
[25] = Kinetic solubility of compound at pH 6.5; format: physicochemical; settings: buffer, read-out: Kinetic_solubility
[26] = Apparent permeability across apical to basolateral side in MDCKII-MDR1 cells incubated for 2 hrs by LC-MS analysis; format: ADME, cell-based, Canis lupus familiaris; settings: dog, MDCK-MDR1
RAW264.7 = test: Inhibition of PARP7 in mouse RAW264.7 cells assessed as increase in IFN-beta level incubated for 24 hrs by ELISA; format: cell-based
NCI-H1373 = test: Antiproliferative activity against human NCI-H1373 cells assessed as inhibition of cell viability incubated for 4 days by luminescence based assay; settings: NCI-H1373, 96 h
Cytochrome P450 2C19 = Cytochrome P450 2C19 (Homo sapiens, UniProt P33261); test: Inhibition of CYP2C19 in human liver microsomes using mephenytoin as substrate preincubated for 10 mins followed by substrate addition measured for 30 mins by LC-MS analysis; format: ADME, Microsome
Sequence of Cytochrome P450 2C19 (P33261 whole entry): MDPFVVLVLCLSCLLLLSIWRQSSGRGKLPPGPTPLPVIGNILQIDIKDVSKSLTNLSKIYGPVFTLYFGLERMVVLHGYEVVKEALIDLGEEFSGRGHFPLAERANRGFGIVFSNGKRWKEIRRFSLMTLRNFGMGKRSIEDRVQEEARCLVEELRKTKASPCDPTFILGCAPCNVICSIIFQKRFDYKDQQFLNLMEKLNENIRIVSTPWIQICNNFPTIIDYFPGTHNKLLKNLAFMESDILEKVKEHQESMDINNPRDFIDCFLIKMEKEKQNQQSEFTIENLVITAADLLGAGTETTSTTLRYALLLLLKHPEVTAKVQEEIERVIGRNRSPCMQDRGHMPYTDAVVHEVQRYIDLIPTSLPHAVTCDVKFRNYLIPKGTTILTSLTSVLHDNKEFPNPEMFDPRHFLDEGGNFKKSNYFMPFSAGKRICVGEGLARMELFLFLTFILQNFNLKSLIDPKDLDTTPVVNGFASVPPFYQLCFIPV

[27] = Tmax in fasted Beagle dog at 10 mg/kg, po measured for 24 hrs by LC-MS analysis; format: ADME, organism-based, Canis lupus familiaris; settings: in vivo
[28] = Metabolic stability in rat liver microsomes assessed as intrinsic clearance preincubated for 5 mins followed by NADPH addition measured for 1 hr by LC-MS analysis; format: ADME, Microsome; settings: time 65 min, read-out: CLH
[29] = Half life in fasted ICR mouse at 2 mg/kg, iv measured for 24 hrs by LC-MS analysis; format: ADME, organism-based; settings: in vivo

**Q.** For `O=C(CCOC[C@@H]1CCN1c1cn[nH]c(=O)c1C(F)(F)F)N1CCN2c3ncc(C(F)(F)F)cc3OC[C@@H]2C1`, which t1/2 [1] is on record?
**A.** 216 min

**Q.** And the AUC [2]?
**A.** 1146 ng·h/mL

**Q.** What about the Activity [3] of the same molecule?
**A.** Non-Toxic

**Q.** What about the efflux ratio at 2 h [4] of the same molecule?
**A.** 16.3

**Q.** And the IC50 [5]?
**A.** 0.492 µM

**Q.** What about the IC50 (Cytochrome P450 3A4) of the same molecule?
**A.** > 30 µM

**Q.** What about the IC50 (Cytochrome P450 2C9) of the same molecule?
**A.** 2.01 µM

**Q.** And the CLint scaled [6]?
**A.** 19.8 mL/min/kg

**Q.** And the fraction unbound at 1 h, 2 µM [7]?
**A.** 0.004

**Q.** What about the Tmax [8] of the same molecule?
**A.** 24 min

**Q.** And the Cmax [9]?
**A.** 2300 ng/mL

**Q.** And the solubility kinetic [10]?
**A.** 158 µM (≈ 88.9 µg/mL)

**Q.** And the solubility kinetic [11]?
**A.** 166 µM (≈ 93.4 µg/mL)

**Q.** What about the fraction unbound at 1 h, 2 µM [12] of the same molecule?
**A.** 0.002

**Q.** And the CLint scaled [13]?
**A.** 9.1 mL/min/kg

**Q.** And the Vd [14]?
**A.** 1.77 L/kg

**Q.** And the fraction unbound at 1 h, 2 µM [15]?
**A.** 0.044

**Q.** What about the Cmax [16] of the same molecule?
**A.** 752 ng/mL

**Q.** What about the CLint scaled [17] of the same molecule?
**A.** 79.2 mL/min/kg

**Q.** And the IC50 [18]?
**A.** 0.36 µM

**Q.** And the IC50 [19]?
**A.** > 1 µM

**Q.** What about the AUC at 24 h [20] of the same molecule?
**A.** 680 ng·h/mL

**Q.** What about the fraction unbound at 1 h, 2 µM [21] of the same molecule?
**A.** 0.006

**Q.** And the IC50 (MDA-MB-436)?
**A.** > 10 µM

**Q.** What about the solubility thermodynamic [22] of the same molecule?
**A.** 113 µg/mL (≈ 201 µM)

**Q.** What about the clearance [23] of the same molecule?
**A.** 7.5 mL/min/kg

**Q.** And the Papp B→A at 2 h [24]?
**A.** 3.3 ×10⁻⁶ cm/s

**Q.** What about the solubility kinetic [25] of the same molecule?
**A.** 154 µM (≈ 86.6 µg/mL)

**Q.** What about the Papp A→B at 2 h [26] of the same molecule?
**A.** 0.202 ×10⁻⁶ cm/s

**Q.** And the inhibition (RAW264.7)?
**A.** Active

**Q.** And the IC50 (NCI-H1373)?
**A.** 0.0041 µM

**Q.** What about the IC50 (Cytochrome P450 2C19) of the same molecule?
**A.** 7.55 µM

**Q.** What about the Tmax [27] of the same molecule?
**A.** 24.6 min

**Q.** And the CLint scaled [28]?
**A.** 88.8 mL/min/kg

**Q.** What about the half-life [29] of the same molecule?
**A.** 42 min
